Test results: US6123916A, “Therapeutic use of somatostatin peptides” (priority 1990, dated 2000)

Test system: GH-release (serum GH-level)
Assay: Depression of serum GH-levels in male rats 1 hour after s.c. administration (radio-immuno-assay)
Type: in vivo, rat
Settings: blood taken 1 hour after administration
Experimental: This test is carried out employing male rats. The test-substance is administered at varying, logarithmically staggered doses employing at least 5 rats per dose. 1 hour after s.c. administration of the test substance blood is taken. The determination of the blood serum GH-level is effected by radio-immuno-assay.

Compound: C[C@H](N)C(=O)NCC(=O)N[C@H]1CSSC[C@@H](C(=O)O)NC(=O)[C@H](CO)NC(=O)[C@H]([C@@H](C)O)NC(=O)[C@H](Cc2ccccc2)NC(=O)[C@H]([C@@H](C)O)NC(=O)[C@H](CCCCN)NC(=O)[C@H](Cc2c[nH]c3ccccc23)NC(=O)[C@H](Cc2ccccc2)NC(=O)[C@H](Cc2ccccc2)NC(=O)[C@H](CC(N)=O)NC(=O)[C@H](CCCCN)NC1=O [natural somatostatin, somatostatin]
- ID50 (amount of compound required to lower the GH content by 50% compared with untreated control animals): 950 µg/kg
